“Also recorded” adds a separate entry of the source.
Legend:
[1] = test system: Beas2b human airway epithelial cells; assay: TNFα-induced ROS production (DCF assay) in beas2b cells; assay type: cell-based; settings: TNFα 10 ng/mL, 24 hr
Method: Beas2b human airway epithelial cells were grown to 70% confluency. Cells were treated with TNFα (10 ng/mL) or an equal volume of nuclease-free water in the presence of 0, 0.25, 2.5, or 25 nM of UNC0642. Cell lysates were collected in 1×PBS after 24 hr and freeze-thawed twice to lyse the cells completely. In vitro ROS was measured using OxiSelect In Vitro ROS/RNS Assay Kit with DCF standard. ROS (nM) was calculated from the standard curve and values were normalized by total amount of protein (as measured by Bradford assay). Values are expressed as mean+/−SEM (average of two experimental replicates).

[2] = biological target: T1, active human EHMT2/G9a protein fragment (Homo sapiens, UniProt Q96KQ7); assay: G9a inhibitor in vitro histone methyltransferase assay; assay type: biochemical
T1 construct: active human EHMT2/G9a protein fragment (ab80323); purchased ab80323
T1 sequence (Q96KQ7 785-1210 limits assumed): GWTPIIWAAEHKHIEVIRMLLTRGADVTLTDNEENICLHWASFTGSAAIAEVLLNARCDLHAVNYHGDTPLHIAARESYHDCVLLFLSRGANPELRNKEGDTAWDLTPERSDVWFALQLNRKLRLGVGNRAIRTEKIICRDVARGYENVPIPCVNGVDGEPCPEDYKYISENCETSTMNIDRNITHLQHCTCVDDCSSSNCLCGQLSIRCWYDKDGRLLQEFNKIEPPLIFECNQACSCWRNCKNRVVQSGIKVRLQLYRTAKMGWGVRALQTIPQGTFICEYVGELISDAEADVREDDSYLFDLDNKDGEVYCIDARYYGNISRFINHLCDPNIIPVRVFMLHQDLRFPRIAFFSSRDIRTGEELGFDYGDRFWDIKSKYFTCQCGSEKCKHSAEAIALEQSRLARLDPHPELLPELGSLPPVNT
Description: The commercially available Histone H3 (K9) Methyltransferase Activity Quantification Assay Kit (ab113453) was used for this assay and a modified protocol was adopted. Briefly, the histone substrate is stably captured on the strip wells. Uninhibited G9a methyltransferase (active human EHMT2/G9a protein fragment (ab80323)) will transfer a methyl group to histone H3 substrate from Adomet to methylate the substrate at lysine 9. The methylated histone H3K9 can be recognized with a high-affinity antibody. The ratio or amount of methylated H3K9, which is directly proportional to enzyme activity, can be quantified through HRP-conjugated secondary antibody color development system. In the presence of inhibitors of G9a methyltransferase, this reaction will be inhibited. […] The color should change to yellow and absorbance can be read on a microplate reader at 450 nm within 2-15 minutes.
G9a activity or inhibition was calculated as follows: plot OD value versus amount of G9a Standard and determine the slope. […]

[3] = test system: H3K9me2 in venous endothelial cell nuclei; assay: H3K9me2 immunofluorescence in zebrafish larvae; assay type: in vivo; settings: LPS 100 μg/ml + 1 μM UNC0642, 5 h
Method: 3 dpf Tg eGFP) larvae were exposed to Vehicle, LPS (100 μg/ml) or LPS+1 μM UNC0642 by static immersion for 5 h at 28.5° C. Embryos were fixed overnight at 4° C. in 2% PFA in PBST (PBS+0.1% Tween 20). Embryos were then washed 4×5 min in PBST at room temperature (RT) and permeabilized for 30 min at RT in PBST+0.5% TritonX-100. Embryos were then blocked in PBST+0.1% TritonX-100+10% NGS+1% BSA for 2 h at RT. Embryos were incubated with primary antibodies (Mouse monoclonal (mAbcam 1220) to Histone H3 (di-methyl K9) in blocking solution (1:200) overnight at 4° C. Embryos were then washed 6×20 min in PBST at RT and then incubated with the secondary antibody (Goat anti-mouse IgG Alexa fluor 647; 1:1000) in blocking solution for 2 h at RT. Embryos were finally washed 3×10 min in PBST at RT. Images were taken with a Zeiss Confocal Microscope.

[4] = test system: H3K9me2 in HPMECs; assay: H3K9me2 Western blot in LPS-treated HPMECs; assay type: cell-based, human; settings: LPS 1 ug/ml +/- UNC0642 2.5 nM, 24 hours

COc1cc2c(NC3CCN(C(C)C)CC3)nc(N3CCC(F)(F)CC3)nc2cc1OCCCN1CCCC1 [UNC0642, 2-(4,4-Difluoropiperidin-1-yl)-6-methoxy-N-[1-(propan-2-yl)piperidin-4-yl]-7-(3-(pyrrolidin-1-yl)propoxy]quinazolin-4-amine]
TNFα-induced increased ROS production [1]: significantly lowered | G9a methyltransferase activity [2]: inhibits G9a methyltransferase activity in a dose dependent manner | LPS induced increased H3K9me in venous endothelial cell nuclei [3]: rescues LPS induced increased H3K9me | H3K9me2 by Western Blot [4]: decreased H3K9me2; also recorded: reduction in this H3K9me2

From patent US11998549B2, “Methods of treating a vascular leakage-associated disease or disorder” (UNITY HEALTH TORONTO, priority 2019, dated 2024)
